Where “and” joins values, the source holds several entries; their conditions need not be identical. Equal values may be shown once. Marks after values point to notes of the source that are not given here. Blank lines part the entries; values can stand above or below the compound they belong to.
Legend:
[1] = system: A. baumannii ATCC 17978; assay: inhibition of bacterial growth, OD600 after 20 h; assay type: cell-based, Acinetobacter baumannii; details: SSA 5.0 mM, 2.5% ethanol, negative = enhanced growth
Description: (§1) With the self-associative properties of 1–10 established, the antimicrobial activity of these SSAs were determined against a panel of clinically relevant, high-priority pathogens including: P. aeruginosa PAO1; Klebsiella pneumonia (K. pneumoniae) M6; E. coli NCTC 12923; Acinetobacter baumannii (A. baumannii) ATCC 17978; S. aureus ATCC 9144; Enterococcus faecalis (E. faecalis) NCTC 775; and Enterococcus faecium (E. faecium) NCTC 12204. […] However, it should be noted that the SSA stock solution was prepared in a H2O 5% EtOH solution, to ensure that the SSA aggregates formed were in line with those characterised within the scope of the SSA self-association studies.
(§2) Section 3: Biological methods
(§3) These methods were taken directly from UK Health and Security Office (UKHSA) standard […]
(§4) Preparation of Luria Broth media (LB): Yeast extract (5.0 g), tryptone (10.0 g) and sodium chloride (10.0 g) were dissolved in dH₂O (1.0 L) then divided into bottles and autoclaved.
(§5) Preparation of Luria Broth (LB) agar plates: Agar (6.0 g) was added to LB (400 mL) and autoclaved. Once cool, the LB agar was poured into sterile petri dishes under sterile conditions and allowed to set. LB plates were stored at 4 °C until use.
(§6) Preparation of bacterial plates: Sterile LB agar plates were streaked using streaked using the desired bacteria i) Pseudomonas aeruginosa (P.aeruginosa) PAO1, ii) Klebsiella pneumoniae (K. pneumoniae) M6 iii) E. coli NCTC 12923 and iv) Acinetobacter baumannii (A. baumannii) ATCC 17978 and Gram-positive i) Staphylococcus aureus (S. aureus) ATCC 9144 ii) Enterococcus faecalis (E. faecalis) NCTC 775 and iii) Enterococcus faecium (E. faecium ) NCTC 12204, then incubated at 37 °C overnight.
(§7) Preparation of Inoculum: An initial culture was made up by inoculating LB media (5 mL) with a single colony of bacteria under sterile conditions and incubated at 37 °C with shaking overnight. The following day, overnight bacterial cultures were subcultured into fresh LB medium to a starting OD600 of 0.01.
(§8) Preparation of 96 well microplate for MIC50: The 1:100 cell suspension (150 µL) was dispensed into individual wells under sterile conditions. SSAs (30 µL) were added to the wells to equal a total volume of 180 µL in the wells. Six repeats of each concentration for each SSA were created each plate. The plates were sealed using parafilm, then incubated at 37 °C in a microplate reader for 20 hours. OD600 endpoint data was used to generate growth curves. […]

[2] = system: P. aeruginosa PAO1; assay: inhibition of bacterial growth, OD600 after 20 h; assay type: cell-based, Pseudomonas aeruginosa; details: SSA 5.0 mM, 2.5% ethanol, negative = enhanced growth
Description: as §1, §2, §3, §4, §5, §6, §7, §8

[3] = tensiometry: critical aggregate concentration (CAC) and surface tension; assay type: physicochemical; details: for Surface tension at CAC: H2O/5.0 % EtOH
Description: As the (Q) ^1H NMR spectroscopy experiments conducted at 5.6 mM in a D2O 5.0% EtOH solution confirmed the presence of higher-order self-associated structures with solid-like properties, concentration dependent surface tension measurements, obtained through tensiometry, were used to calculate critical aggregate concentration (CAC). Here the CAC is defined as the point at which an increase in SSA concentration no longer decreases surface tension but instead results in the formation of higher-order self-associated structures.

[4] = system: E. coli NCTC 12923; assay: inhibition of bacterial growth, OD600 after 20 h; assay type: cell-based, Escherichia coli; details: SSA 5.0 mM, 2.5% ethanol, negative = enhanced growth
Description: as §1, §2, §3, §4, §5, §6, §7, §8

[5] = system: K. pneumoniae M6; assay: inhibition of bacterial growth, OD600 after 20 h; assay type: cell-based, Klebsiella pneumoniae; details: SSA 5.0 mM, 2.5% ethanol, negative = enhanced growth; for inhibition at 5000 µM: Klebsiella pneumoniae, M6, 20 h, read-out: Percentage inhibition of bacterial growth, M6 (K. pneumoniae)
Description: as §1, §2, §3, §4, §5, §6, §7, §8

[6] = quantitative (Q) 1H NMR spectroscopy, proportion of SSA becoming NMR silent (higher-order aggregates); assay type: physicochemical
Description: To confirm the presence of higher order self-associative structures quantitative (Q) ^1H NMR spectroscopy studies were undertaken at 5.6 mM in D2O 5% EtOH. Here the ^1H NMR resonances attributed to the EtOH are used as an internal standard.
Table S1 – Overview of results of the quantitative (Q) 1H NMR studies for 1, 3, 5, 7 and 9
5.0 % EtOH . Values given in % represent the observed proportion of the SSA that has become
Table S2 – Overview of results of the quantitative (Q) 1H NMR studies for 2, 4, 6, 8 and 10
5.0 % EtOH. Values given in % represent the observed proportion of anion and cation that has

[7] = dynamic light scattering (DLS) of SSA aggregates; assay type: physicochemical; details: 5.6 mM, H2O 5.0% EtOH, 298 K
Description: Dynamic light scattering (DLS) and zeta potential measurements in H2O 5.0% EtOH were used to determine the hydrodynamic diameter (dH) and stability of the higher-order SSA aggregates detected by (Q) ^1H NMR spectroscopy at 5.6 mM, Table 1. […] However, we are unable to confidently report a dH for 1 due to the instability of this system, which is supported by a zeta potential value of −26 mV, obtained for this SSA under the same experimental conditions. […] Due to the instability of these systems in the absence of solvent, attempts to further characterise these systems through SEM or AFM are not possible.[48]

CAC ([3]; H2O 5.0% EtOH, 298 K): 19.23 mM and 19 mM
ST at CAC ([3]; H2O 5.0% EtOH, 298 K): 39 mN m^−1
Surface tension at CAC [3]: 38.90 mN/m
(Q) 1H NMR spectroscopy, proportion NMR silent, acid or anion ([6]; 5.6 mM, D2O 5.0% EtOH, 298 K): 38.5% and 39%
(Q) 1H NMR, proportion NMR silent, SSA acid or anion ([6]; ~112 mM, DMSO-d6 1.0% DCM): 0%
Structure (SMILES): O=C(O)CC[C@H](NC(=O)Nc1ccc(C(F)(F)F)cc1)C(=O)O [SSA 1]
Percentage inhibition of bacterial growth, ATCC 17978 (A. baumannii) [1]: 90.67% and 91%
Percentage inhibition of bacterial growth, PAO1 (P. aeruginosa) [2]: -28.56% and −29%
Percentage inhibition of bacterial growth, NCTC 12923 (E. coli) [4]: 64.03% and 64%
inhibition at 5000 µM [5]: 26.2%
Percentage inhibition of bacterial growth, M6 (K. pneumoniae) [5]: 26%

CAC ([3]; H2O 5.0% EtOH, 298 K): 19.84 mM and 20 mM
ST at CAC ([3]; H2O 5.0% EtOH, 298 K): 37 mN m^−1
Surface tension at CAC [3]: 37.13 mN/m
Polydispersity index (%) [7]: 18.2 (± 1.1) %
dH (DLS intensity distribution peak 1 maxima) [7]: 140 nm
(Q) 1H NMR spectroscopy, proportion NMR silent, acid or anion ([6]; 5.6 mM, D2O 5.0% EtOH, 298 K): 39.8% and ~40%
(Q) 1H NMR spectroscopy, proportion NMR silent, cation ([6]; 5.6 mM, D2O 5.0% EtOH, 298 K): 36.3% and 36%
(Q) 1H NMR, proportion NMR silent, SSA acid or anion ([6]; ~112 mM, DMSO-d6 1.0% DCM): 0%
(Q) 1H NMR, proportion NMR silent, cation ([6]; ~112 mM, DMSO-d6 1.0% DCM): 0%
Structure (SMILES): O=C(O)CC[C@H](NC(=O)Nc1ccc(C(F)(F)F)cc1)C(=O)O [SSA 2]
Percentage inhibition of bacterial growth, ATCC 17978 (A. baumannii) [1]: -23.34% and −23%
Percentage inhibition of bacterial growth, PAO1 (P. aeruginosa) [2]: -11.25% and −11%
Percentage inhibition of bacterial growth, NCTC 12923 (E. coli) [4]: 6.06% and 6%
Percentage inhibition of bacterial growth, M6 (K. pneumoniae) [5]: 17.56% and 18%

CAC ([3]; H2O 5.0% EtOH, 298 K, listed as 3): 17.46 mM and 20 mM
Surface tension at CAC ([3]; listed as 3): 38.73 mN/m
DLS Peak 2 maxima ([7]; listed as 3): 1410 nm
Polydispersity index (%) ([7]; listed as 3): 20.2 (± 0.7) %
dH (DLS intensity distribution peak 1 maxima) ([7]; listed as 3): 154 nm
(Q) 1H NMR spectroscopy, proportion NMR silent, acid or anion ([6]; 5.6 mM, D2O 5.0% EtOH, 298 K, listed as 3): 34%
(Q) 1H NMR, proportion NMR silent, SSA acid or anion ([6]; ~112 mM, DMSO-d6 1.0% DCM): 0%
Structure (SMILES): O=C(O)CC[C@@H](NC(=O)Nc1ccc(C(F)(F)F)cc1)C(=O)O [SSA 3]
Percentage inhibition of bacterial growth, ATCC 17978 (A. baumannii) ([1]; listed as 3): 94.45% and 94%
Percentage inhibition of bacterial growth, PAO1 (P. aeruginosa) ([2]; listed as 3): -35.71% and −36%
Percentage inhibition of bacterial growth, NCTC 12923 (E. coli) ([4]; listed as 3): 59.91% and 60%
inhibition at 5000 µM [5]: 15.4%
Percentage inhibition of bacterial growth, M6 (K. pneumoniae) ([5]; listed as 3): 15%

CAC (footnote in place of a value) ([3]; H2O 5.0% EtOH, 298 K): ^c (CAC is >100 mM)
ST at the limit of solubility or 100 mM, whichever concentration is lower ([3]; H2O 5.0% EtOH, 298 K): 54 ^d mN m^−1
Surface tension at CAC ([3]; listed as 9): 54.44 mN/m
Polydispersity index (%) ([7]; listed as 9): 25.6 (± 1.0) %
dH (DLS intensity distribution peak 1 maxima) ([7]; listed as 9): 178 nm
(Q) 1H NMR spectroscopy, proportion NMR silent, acid or anion ([6]; 5.6 mM, D2O 5.0% EtOH, 298 K, listed as 9): 40.9% and 41%
Structure (SMILES): O=C(O)CC[C@H](NC(=O)Nc1ccc(Br)cc1)C(=O)O [SSA 9]
Percentage inhibition of bacterial growth, ATCC 17978 (A. baumannii) ([1]; listed as 9): -8.08% and −8%
Percentage inhibition of bacterial growth, NCTC 12923 (E. coli) ([4]; listed as 9): 62.96% and 63%
Percentage inhibition of bacterial growth, M6 (K. pneumoniae) ([5]; listed as 9): 21.69% and 22%

Reference: article PMC12645191, “Dicarboxylate and dicarboxylic acid appended supramolecular self-associating amphiphiles as antimicrobial agents against high priority bacterial pathogens” (Organic & Biomolecular Chemistry, 2025)
